The species entered for the experiment is Homo sapiens. Description: Immunosuppressive activity was evaluated by the inhibition of human T-lymphocyte proliferation. The format is functional.

As to `CO[C@H]1C[C@@H]2CC[C@@H](C)[C@@](O)(O2)C(=O)C(=O)N2CCCC[C@H]2C(=O)O[C@H]([C@H](C)C[C@@H]2CC[C@@H](O)[C@H](OC)C2)CC(=O)[C@H](C)/C=C(\C)[C@@H](O)[C@@H](OC)C(=O)[C@H](C)C[C@H](C)/C=C/C=C/C=C/1C` [SIROLIMUS], the IC50 (as a rule, the concentration needed to halve the response being measured) (Homo sapiens) was found to be 0.5 nM.
Molecule [Ru(imidazolidine)6](CF3SO3)2 showed an IC50 of 4 nM. This lies in the single-digit nanomolar range.
On to [Ru(imidazolidine)6]Cl2, for which half-maximal inhibition (IC50) was put at 5 nM. The IC50 values of the last two molecules are within 1.5-fold of each other.

These data come from ChEMBL document CHEMBL1131397, “Synthesis and immunosuppressive activity of ruthenium complexes” (Bioorg Med Chem Lett, 1998).
